Reference: the supplement of paper PMC10307832

Assays:
Experiment in all cases: relative viability (nuclei count vs DMSO), 5 days (fraction); higher = more cells survive
Bortezomib + Foretinib = compound: CC(C)C[C@H](NC(=O)[C@H](Cc1ccccc1)NC(=O)c1cnccn1)B(O)O [Bortezomib] + COc1cc2c(Oc3ccc(NC(=O)C4(C(=O)Nc5ccc(F)cc5)CC4)cc3F)ccnc2cc1OCCCN1CCOCC1 [Foretinib] (partner 0.25 µM)
How it was run: (§1)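 A single step with final 0.05% Triton X-100, 1% formaldehyde and 1 ug/ml Hoechst fixed the cells and stained nuclei 5 days after treatment. Lung cancer cell lines in 1536-well plates had been treated by pin tool the day after seeding with one drug alone or a fixed anchor-drug dose plus five library-drug doses (not always all listed) in √10 steps, and nuclei were counted on 4× images. Relative viability is the ratio of nuclei in treated wells to nuclei in vehicle wells, taken as the median of duplicate plates.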

Bortezomib + Pemetrexed = compound: CC(C)C[C@H](NC(=O)[C@H](Cc1ccccc1)NC(=O)c1cnccn1)B(O)O [Bortezomib] + Nc1nc2[nH]cc(CCc3ccc(C(=O)N[C@@H](CCC(=O)O)C(=O)O)cc3)c2c(=O)[nH]1 [Pemetrexed] (partner 0.2 µM)
How it was run: as §1

[1] = compound: CC1=CC(=NN1)NC2=CC(=NC(=N2)/C=C/C3=CC=CC=C3)N4CCN(CC4)C + COc1cccc2cc(-c3nc([C@H]4CC[C@H](C(=O)O)CC4)n4ncnc(N)c34)[nH]c12 [OSI-027] (partner 0.5 µM)
How it was run: as §1

[2] = compound: CC1=CC(=NN1)NC2=CC(=NC(=N2)/C=C/C3=CC=CC=C3)N4CCN(CC4)C + CC(C)C[C@H](NC(=O)[C@H](Cc1ccccc1)NC(=O)c1cnccn1)B(O)O [Bortezomib] (partner 0.002 µM)
How it was run: as §1

Cell Line	relative viability (Bortezomib + Foretinib; first compound 0.0002 µM)	relative viability (Bortezomib + Foretinib; first compound 0.000632 µM)	relative viability (Bortezomib + Foretinib; first compound 0.002 µM)	relative viability (Bortezomib + Foretinib; first compound 0.006325 µM)	relative viability (Bortezomib + Foretinib; first compound 0.02 µM)	relative viability (Bortezomib + Pemetrexed; first compound 0.0002 µM)	relative viability (Bortezomib + Pemetrexed; first compound 0.000632 µM)	relative viability (Bortezomib + Pemetrexed; first compound 0.002 µM)	relative viability (Bortezomib + Pemetrexed; first compound 0.006325 µM)	relative viability (Bortezomib + Pemetrexed; first compound 0.02 µM)	relative viability ([1]; first compound 0.08 µM)	relative viability ([1]; first compound 0.253 µM)	relative viability ([1]; first compound 0.8 µM)	relative viability ([1]; first compound 2.53 µM)	relative viability ([1]; first compound 8 µM)	relative viability ([2]; first compound 0.08 µM)	relative viability ([2]; first compound 0.253 µM)	relative viability ([2]; first compound 0.8 µM)	relative viability ([2]; first compound 2.53 µM)	relative viability ([2]; first compound 8 µM)
NCI-H2342	1.02	0.945	0.829	0.929	0.34	0.801	0.783	0.739	0.752	0.712	0.557	0.594	0.662	0.577	0.381	–	–	–	–	–
HCC-827	1.11	1.01	0.693	0.113	0.0926	0.265	0.254	0.219	0.234	0.247	0.778	0.865	0.716	0.742	0.588	1.03	1.13	0.951	0.923	0.641
NCI-H322M	0.894	–	0.773	0.654	0.327	0.642	0.403	0.617	0.4	0.335	0.504	0.546	0.538	0.364	0.278	1.14	1.24	1.17	1.1	0.258
ChaGo-K-1	0.837	0.822	0.992	0.245	0.185	0.265	0.238	0.249	0.267	0.192	0.566	0.548	0.528	0.191	0.131	0.994	1.2	1.15	0.285	0.241
BEN	0.494	0.866	0.769	0.572	0.356	0.75	0.806	0.88	0.529	0.373	0.294	0.264	0.271	0.244	0.162	0.854	0.992	0.831	0.523	0.197
NCI-H2347	0.741	1.3	1.09	0.275	0.327	0.418	0.43	0.413	0.417	0.357	0.37	0.431	0.465	0.347	0.197	0.829	1.21	1.04	1.32	0.461
LOU-NH91	0.863	0.867	0.328	0.258	0.243	0.396	0.446	0.361	0.281	0.284	0.767	0.842	0.742	0.699	0.507	0.403	0.472	0.537	0.474	0.358
NCI-H2228	0.957	0.962	0.595	0.0857	0.0911	0.369	0.356	0.275	0.112	0.0808	0.566	0.595	0.557	0.0751	0.0577	0.96	0.917	0.74	0.0986	0.0661
NCI-H358	0.538	0.647	0.642	0.0816	0.0663	0.163	0.182	0.171	0.104	0.0993	0.769	0.933	0.483	0.0714	0.0592	–	–	–	–	–
HCC-366	0.917	0.889	1.01	0.627	0.0395	0.149	0.173	0.207	0.149	0.0543	0.833	0.618	0.875	0.0773	0.0341	0.993	1.18	1.03	0.0189	0.0155
NCI-H2405	1.02	1.05	0.86	0.271	0.188	1.02	0.792	1.11	0.121	0.14	0.619	0.571	0.651	0.373	0.209	0.963	0.819	1.02	0.865	0.958
Calu-6	0.803	0.856	0.839	0.0564	0.0507	–	–	–	–	–	–	–	–	–	–	0.912	0.947	0.764	0.174	0.13
201T	1.05	1.11	0.793	0.297	0.172	0.338	0.327	0.321	0.353	0.308	0.718	0.756	0.803	0.531	0.112	1.11	1.17	1.06	1.02	1.01
CAL-12T	1.18	1.07	1.08	0.743	0.154	1.25	1.26	1.24	1.15	0.123	0.666	0.651	0.447	0.14	0.12	0.979	0.952	0.645	0.268	0.164
HCC-44	–	–	–	–	–	0.674	0.723	0.615	0.631	0.256	0.615	0.49	0.633	0.292	0.144	0.805	0.968	0.854	0.735	0.25
NCI-H1944	0.791	0.818	0.87	0.724	0.199	0.564	0.546	0.636	0.47	0.151	0.437	0.4	0.394	0.272	0.145	–	–	–	–	–
SK-MES-1	1.01	0.946	0.967	0.632	0.241	0.956	1.02	0.915	0.211	0.167	0.604	0.617	0.524	0.139	0.103	–	–	–	–	–
